SMILES strings stand for the structures. Like-named read-outs stand apart in the source and are kept apart here.

Consider 41 molecules from patent US11666577B2 (National Institute of Biological Sciences, Beijing, priority 2018, dated 2023).

For the assay, the system named is HT-29 cells. The assay is described as follows: Necroptosis assay (TNF-α/Smac mimetic/z-VAD, TSZ-induced) in HT-29 cells. The assay is classed as cell-based, human. The procedure:
Methods: HT-29 cells were cultured in McCoy's 5 A culture medium (Invitrogen). On day one, HT-29 cells were plated in 96-well assay plates at density of 2,500-3,500 cells per well. On day two, necrosis were induced by adding 20 ng/ml TNF-α (T), 100 nM Smac mimetic (S), and […] z-VAD (Z). At the same time, 10 mM compound from a chemical library of ˜200,000 compounds was delivered into each well. After 24 hrs treatment, cell viability was determined by measuring ATP level using the Cell Titer-Glo Luminescent Cell Viability Assay kit. A CellTiter-Glo Assay (Promega) was performed according to the manufacturer's instructions. Luminescence was recorded with a PerkinElmer EnSpire Multimode Plate Reader. Survived cells were normalized to those cells treated with DMSO. RIPA-56 was used as a positive control for screening necroptosis inhibitors. Data are represented as mean±standard deviation of duplicates.
In previous work, we performed a cell-based high-throughput screen to identify necroptosis inhibitors using a chemical library of ˜200,000 compounds and identified multiple compounds that protected human colorectal adenocarcinoma (HT-29) cells from TNF-α/Smac mimetic/Z-VAD-fmk (TSZ)-induced necroptosis.^[4]
The anti-necroptosis potency of compounds 7-12 and 14-18 was evaluated in the HT-29 cell line; the EC50 values are shown in Table B.
[a] Necroptosis was induced in HT-29 cells for 24 h; the EC50 values given here are the mean values of at least three independent analyses.

Setting [1] is: Homo sapiens, Series 2 (Table 2) compounds, HT-29 necroptosis assay, read-out: Series 2 compound necroptosis activity.
The mark [2] stands for this setting: Series 1 (Table 1) compounds 1-146, HT-29 cells, TNF-α/Smac mimetic/z-VAD, 24 hrs, cell viability by ATP level, read-out: Series 1 compound necroptosis activity.

Take `Cn1c(=O)c2c(nc(S(=O)(=O)Cc3ccccc3)n2C)n(C)c1=O` [Compound 21, 8-(benzylsulfonyl)-1,3,7-trimethyl-1H-purine-2,6(3H,7H)-dione]: under “Homo sapiens, Series 1 (Table 1) compounds 1-146, HT-29 cells, TNF-α/Smac mimetic/z-VAD, 24 hrs, cell viability by ATP level, read-out: Series 1 compound necroptosis activity”, the EC50 was 1 to 100 µM.
For the molecule `COc1cc(C#CCn2c(=O)n(C)c(=O)c3c2nc(S(C)(=O)=O)n3C)cc(NCCN2CCOCC2)c1` [Compound 21], the EC50 under setting [1] is 0.001 to 0.1 µM.
In the case of `Cn1c(=O)c2c(nc(S(=O)(=O)CCc3ccccc3)n2C)n(C)c1=O` [Compound 22, 1,3,7-trimethyl-8-(phenethylsulfonyl)-1H-purine-2,6(3H,7H)-dione], the EC50 under setting [2] is 1 to 1000 µM.
Consider `Cn1c(=O)c2c(nc(S(=O)(=O)CC3CC3)n2C)n(CC#Cc2cc(NC(=O)CN3CCOCC3)ccc2Cl)c1=O` [Compound 22], for which the EC50 under setting [1] is 0.001 to 0.1 µM.
Turning to `Cn1c(=O)c2c(nc(S(=O)(=O)Cc3ccc4ccccc4c3)n2C)n(C)c1=O` [Compound 23, 1,3,7-trimethyl-8-(naphthalen-2-ylmethylsulfonyl)-1H-purine-2,6(3H,7H)-dione], the EC50 under setting [2] fell in the range of 1 to 1000 µM.
Take `Cn1c(=O)c2c(nc(S(C)(=O)=O)n2C)n(CC#Cc2ccc3[nH]c(=O)[nH]c3c2)c1=O` [Compound 23]: under setting [1], the EC50 was in the range of 0.1 to 10 µM.
Turning to `Cn1c(=O)c2c(nc(S(=O)(=O)Cc3cccc4ccccc34)n2C)n(C)c1=O` [Compound 24, 1,3,7-trimethyl-8-(naphthalen-1-ylmethylsulfonyl)-1H-purine-2,6(3H,7H)-dione], the EC50 under setting [2] is 1 to 1000 µM.
`Cn1c(=O)c2c(nc(S(C)(=O)=O)n2C)n(CC#Cc2ccnc(N)n2)c1=O` [Compound 24]: the EC50 under setting [1] was 0.001 to 0.1 µM.
Turning to `Cn1c(=O)c2c(nc(S(=O)(=O)CCc3cn(CCOCCOCCOCCNC(=O)CCCC[C@@H]4SCC5NC(=O)NC54)nn3)n2C)n(C)c1=O` (stereo partly drawn) [Compound 25, 5-((4S)-2-oxohexahydro-1H-thieno[3,4-d]imidazol-4-yl)-N-(2-(2-(2-(2-(4-(2-(1,3,7-trimethyl-2,6-dioxo-2,3,6,7-tetrahydro-1H-purin-8-ylsulfonyl)ethyl)-1H-1,2,3-triazol-1-yl)ethoxy)ethoxy)ethoxy)ethyl)pentanamide], the EC50 under setting [2] lay within 1 to 1000 µM.
The same measure, in the same setting: in the case of `Cn1c(=O)c2c(nc(S(=O)(=O)Cc3ccccc3F)n2C)n(C)c1=O` [Compound 26, 8-(2-fluorobenzylsulfonyl)-1,3,7-trimethyl-1H-purine-2,6(3H,7H)-dione] it was 1 to 1000 µM.
Take `Cn1c(=O)c2c(nc(S(C)(=O)=O)n2C)n(CC#Cc2cc(NC(=O)CN3CCOCC3)cc(NC(=O)CN3CCOCC3)c2)c1=O` [Compound 26]: under setting [1], the EC50 was 0.001 to 0.1 µM.
For `Cn1c(=O)c2c(nc(S(=O)(=O)Cc3cccc(F)c3)n2C)n(C)c1=O` [Compound 27, 8-(3-fluorobenzylsulfonyl)-1,3,7-trimethyl-1H-purine-2,6(3H,7H)-dione], under setting [2], the EC50 was 1 to 1000 µM.
As for `Cn1c(=O)c2c(nc(S(C)(=O)=O)n2C)n(CC#Cc2cc(NC(=O)C3CC3)cc(NC(=O)C3CC3)c2)c1=O` [Compound 27], the EC50 under setting [1] was 0.001 to 0.1 µM.
As for `Cn1c(=O)c2c(nc(S(=O)(=O)Cc3ccc(F)cc3)n2C)n(C)c1=O` [Compound 28, 8-(4-fluorobenzylsulfonyl)-1,3,7-trimethyl-1H-purine-2,6(3H,7H)-dione], the EC50 under setting [2] was in the range of 1 to 1000 µM.
Take `Cn1c(=O)c2c(nc(S(=O)(=O)CC3CC3)n2C)n(CC#Cc2cc(NC(=O)CN3CCOCC3)cc(NC(=O)CN3CCOCC3)c2)c1=O` [Compound 28]: under setting [1], the EC50 lay in the range of 0.001 to 0.1 µM.
With `Cn1c(=O)c2c(nc(S(=O)(=O)Cc3ccccc3Cl)n2C)n(C)c1=O` [Compound 29, 8-(2-chlorobenzylsulfonyl)-1,3,7-trimethyl-1H-purine-2,6(3H,7H)-dione], under setting [2], the EC50 lay in the range of 1 to 1000 µM.
On to `Cn1c(=O)c2c(nc(S(=O)(=O)Cc3cccc(Cl)c3)n2C)n(C)c1=O` [Compound 30, 8-(3-chlorobenzylsulfonyl)-1,3,7-trimethyl-1H-purine-2,6(3H,7H)-dione], for which, under setting [2], the EC50 is 1 to 1000 µM.
`Cn1c(=O)c2c(nc(S(=O)(=O)CC3CC3)n2C)n(CC#Cc2cc(NC(=O)C3CC3)cc(NC(=O)C3CC3)c2)c1=O` [Compound 30]: the EC50 under setting [1] was 0.001 to 0.1 µM.
Turning to `Cn1c(=O)c2c(nc(S(=O)(=O)Cc3ccc(Cl)cc3)n2C)n(C)c1=O` [Compound 31, 8-(4-chlorobenzylsulfonyl)-1,3,7-trimethyl-1H-purine-2,6(3H,7H)-dione], under setting [2], the EC50 fell in the range of 1 to 1000 µM.
With `Cn1c(=O)c2c(nc(S(=O)(=O)CC3CC3)n2C)n(CC#Cc2ccnc(NC(=O)C3CC3)c2)c1=O` [Compound 31], under setting [1], the EC50 was 0.001 to 0.1 µM.
Consider `Cn1c(=O)c2c(nc(S(=O)(=O)Cc3ccccc3Br)n2C)n(C)c1=O` [Compound 32, 8-(2-bromobenzylsulfonyl)-1,3,7-trimethyl-1H-purine-2,6(3H,7H)-dione], for which the EC50 under setting [2] was 1 to 1000 µM.
`Cn1c(=O)c2c(nc(S(=O)(=O)CC3CC3)n2C)n(CC#Cc2ccnc(NC(=O)CN3CCOCC3)c2)c1=O` [Compound 32]: the EC50 under setting [1] was 0.001 to 0.1 µM.
In the case of `Cn1c(=O)c2c(nc(S(=O)(=O)Cc3cccc(Br)c3)n2C)n(C)c1=O` [Compound 33, 8-(3-bromobenzylsulfonyl)-1,3,7-trimethyl-1H-purine-2,6(3H,7H)-dione], the EC50 under setting [2] fell in the range of 1 to 1000 µM.
On to `CCNc1cc(C#CCn2c(=O)n(C)c(=O)c3c2nc(S(=O)(=O)CC2CC2)n3C)ccn1` [Compound 33], for which the EC50 under setting [1] is 0.001 to 0.1 µM.
`Cn1c(=O)c2c(nc(S(=O)(=O)Cc3ccc(Br)cc3)n2C)n(C)c1=O` [Compound 34, 8-(4-bromobenzylsulfonyl)-1,3,7-trimethyl-1H-purine-2,6(3H,7H)-dione]: the EC50 under setting [2] was 1 to 1000 µM.
Take `Cn1c(=O)c2c(nc(S(=O)(=O)CC3CC3)n2C)n(CC#Cc2ccnc(NCC3CC3)c2)c1=O` [Compound 34]: the EC50 under setting [1] fell in the range of 0.001 to 0.1 µM.
For `COc1ccccc1CS(=O)(=O)c1nc2c(c(=O)n(C)c(=O)n2C)n1C` [Compound 35, 8-(2-methoxybenzylsulfonyl)-1,3,7-trimethyl-1H-purine-2,6(3H,7H)-dione], under setting [2], the EC50 is 1 to 1000 µM.
For the molecule `CC(C)Nc1cc(C#CCn2c(=O)n(C)c(=O)c3c2nc(S(=O)(=O)CC2CC2)n3C)ccn1` [Compound 35], under setting [1], the EC50 was 0.001 to 0.1 µM.
`COc1cccc(CS(=O)(=O)c2nc3c(c(=O)n(C)c(=O)n3C)n2C)c1` [Compound 36, 8-(3-methoxybenzylsulfonyl)-1,3,7-trimethyl-1H-purine-2,6(3H,7H)-dione]: under setting [2], the EC50 lay in the range of 1 to 1000 µM.
For `Cn1c(=O)c2c(nc(S(C)(=O)=O)n2C)n(CC#Cc2cc(NC(=O)CN3CCOCC3)cc(NC(=O)C3CC3)c2)c1=O` [Compound 36], the EC50 under setting [1] was 0.001 to 0.1 µM.
`COc1ccc(CS(=O)(=O)c2nc3c(c(=O)n(C)c(=O)n3C)n2C)cc1` [Compound 37, 8-(4-methoxybenzylsulfonyl)-1,3,7-trimethyl-1H-purine-2,6(3H,7H)-dione]: the EC50 under setting [2] was 1 to 1000 µM.
`Cn1c(=O)c2c(nc(S(C)(=O)=O)n2C)n(CC#Cc2cc(NCC3CC3)cc(NCC3CC3)c2)c1=O` [Compound 37]: the EC50 under setting [1] was 0.001 to 0.1 µM.
Take `Cn1c(=O)c2c(nc(S(=O)(=O)Cc3ccccc3[N+](=O)[O-])n2C)n(C)c1=O` [Compound 38, 1,3,7-trimethyl-8-(2-nitrobenzylsulfonyl)-1H-purine-2,6(3H,7H)-dione]: the EC50 under setting [2] was in the range of 1 to 1000 µM.
With `COCC(=O)Nc1cc(C#CCn2c(=O)n(C)c(=O)c3c2nc(S(C)(=O)=O)n3C)cc(NC(=O)C2CC2)c1` [Compound 38], the EC50 under setting [1] is 0.001 to 0.1 µM.
Take `Cn1c(=O)c2c(nc(S(=O)(=O)Cc3cccc(C4(C(F)(F)F)N=N4)c3)n2C)n(C)c1=O` [Compound 40, 1,3,7-trimethyl-8-(3-(3-(trifluoromethyl)-3H-diazirin-3-yl)benzylsulfonyl)-1H-purine-2,6(3H,7H)-dione]: the EC50 under setting [2] was 1 to 1000 µM.
For `Cn1c(=O)c2c(nc(S(C)(=O)=O)n2C)n(CC#Cc2cc(N)cc(NC(=O)C3CC3)c2)c1=O` [Compound 40], under setting [1], the EC50 fell in the range of 0.001 to 0.1 µM.
Turning to `Cn1c(=O)c2c(nc(S(=O)(=O)Cc3ccc(C4(C(F)(F)F)N=N4)cc3)n2C)n(C)c1=O` [Compound 41, 1,3,7-trimethyl-8-(4-(3-(trifluoromethyl)-3H-diazirin-3-yl)benzylsulfonyl)-1H-purine-2,6(3H,7H)-dione], the EC50 under setting [2] fell in the range of 1 to 1000 µM.
On the same count and under the same terms, in the case of `Cn1c(=O)c2c(nc(S(=O)(=O)Cc3ccccc3C#N)n2C)n(C)c1=O` [Compound 42, 2-((1,3,7-trimethyl-2,6-dioxo-2,3,6,7-tetrahydro-1H-purin-8-ylsulfonyl)methyl)benzonitrile] it was 1 to 1000 µM.
Take `CN(C)CCOc1cc(C#CCn2c(=O)n(C)c(=O)c3c2nc(S(C)(=O)=O)n3C)cc(NC(=O)C2CC2)c1` [Compound 42]: the EC50 under setting [1] is 0.001 to 0.1 µM.
For `Cn1c(=O)c2c(nc(S(=O)(=O)Cc3cccc(C#N)c3)n2C)n(C)c1=O` [Compound 43, 3-((1,3,7-trimethyl-2,6-dioxo-2,3,6,7-tetrahydro-1H-purin-8-ylsulfonyl)methyl)benzonitrile], under setting [2], the EC50 was in the range of 1 to 1000 µM.
As for `Cn1c(=O)c2c(nc(S(C)(=O)=O)n2C)n(CC#Cc2cc(NC(=O)C3CC3)nc(C(F)(F)F)c2)c1=O` [Compound 43], the EC50 under setting [1] was in the range of 0.001 to 0.1 µM.
